The source of these data is patent US20250230193A1, “CYCLIC COMPOUND HAVING SELECTIVE KRAS INHIBITORY EFFECT ON HRAS AND NRAS” (CHUGAI SEIYAKU KABUSHIKI KAISHA, priority 2022, published 2025).

Where a SMILES comes first, the peptide text is derived from it. Bridges are numbered along the chain shown (N, C = ends). [ ]: non-standard residue; d: D form. The star is where a group is joined. hPhe(3-Cl-4-CF3) = N[C@@H](CCc1ccc(C(F)(F)F)c(Cl)c1)C(=O)O; NPrPhe(4-CF3) = CCCN[C@@H](Cc1ccc(C(F)(F)F)cc1)C(=O)O; NMeAbu(4,4,4-F3) = CN[C@@H](CC(F)(F)F)C(=O)O; NMeGly(cPent) = CN[C@H](C(=O)O)C1CCCC1; Pro(4,4-F2) = O=C(O)[C@@H]1CC(F)(F)CN1; NMeD = CN[C@@H](CC(=O)O)C(=O)O; NMeL = CN[C@@H](CC(C)C)C(=O)O; Oxazolidin(3-yl) = C1CN(*)CO1; NMeNva = CCC[C@H](NC)C(=O)O; Morpholide = C1CN(*)CCO1; NMeA = CN[C@@H](C)C(=O)O; Ac5c = NC1(C(=O)O)CCCC1; Aze = O=C(O)[C@@H]1CCN1; NEtG = CCNCC(=O)O; Sar = CNCC(=O)O

The target of assay [1] is GDP-bound NRAS wild-type protein (Homo sapiens, UniProt P01111). The experiment in a line: Binding to NRAS by surface plasmon resonance (SPR), Single Cycle Kinetics. Particulars: SPR; for NRAS/KRAS (ratio of KD value with respect to NRAS to KD value with respect to KRAS) / NRAS/KRAS (ratio of KD value for NRAS to KD value for KRAS): GDP-bound NRAS wild-type vs GDP-bound KRAS wild-type.
GDP-bound NRAS wild-type protein, sequence (P01111 whole entry): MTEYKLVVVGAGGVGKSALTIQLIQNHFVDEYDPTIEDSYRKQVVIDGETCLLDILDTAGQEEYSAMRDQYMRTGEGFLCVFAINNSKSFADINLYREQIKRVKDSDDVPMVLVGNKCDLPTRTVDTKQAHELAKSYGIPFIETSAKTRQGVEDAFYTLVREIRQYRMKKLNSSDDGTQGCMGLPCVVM

Assay [2] concerns the target GDP-bound HRAS wild-type protein (Homo sapiens, UniProt P01112). In words: Binding to HRAS by surface plasmon resonance (SPR), Single Cycle Kinetics. Particulars: SPR; for HRAS/KRAS (ratio of KD value with respect to HRAS to KD value with respect to KRAS) / HRAS/KRAS (ratio of KD value for HRAS to KD value for KRAS): GDP-bound HRAS wild-type vs GDP-bound KRAS wild-type. A general note: Surface plasmon resonance follows binding to a sensor surface in real time, without labels.

GDP-bound HRAS wild-type protein, sequence (P01112 whole entry): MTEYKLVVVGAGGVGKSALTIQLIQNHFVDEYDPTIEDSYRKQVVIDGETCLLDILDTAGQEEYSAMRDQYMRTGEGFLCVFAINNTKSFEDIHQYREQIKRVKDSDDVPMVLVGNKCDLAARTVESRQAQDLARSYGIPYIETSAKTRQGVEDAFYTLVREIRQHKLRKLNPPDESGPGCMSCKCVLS

`CCCN1C(=O)CN(C)C(=O)CN(C)C(=O)[C@H]([C@@H](C)CC)NC(=O)[C@H](CC(F)(F)F)N(C)C(=O)C[C@@H](C(=O)N2CCOCC2)N(C)C(=O)[C@H](C2CCCC2)N(C)C(=O)C2(CCCC2)NC(=O)[C@@H]2CC(F)(F)CN2C(=O)[C@H](CCc2ccc(C(F)(F)F)c(Cl)c2)NC(=O)CN(C)C(=O)[C@@H]1Cc1ccc(C(F)(F)F)cc1` [PP0199] ([NMeAbu(4,4,4-F3)]I[Sar][Sar][NPrPhe(4-CF3)][Sar][hPhe(3-Cl-4-CF3)][Pro(4,4-F2)][Ac5c][NMeGly(cPent)][NMeD]-Morpholide; lactam N-11): in assay [1] (KD ratio NRAS/KRAS), the “NRAS/KRAS (ratio of KD for GDP-bound NRAS wild-type to KD for KRAS)” value is “B (a compound having 3 or more and less than 10 is denoted as B)”. The “HRAS/KRAS (ratio of KD for GDP-bound HRAS wild-type to KD for KRAS)” value in assay [2] (KD ratio HRAS/KRAS) is “C (A compound having a KD ratio of 0.1 or more and less than 3 is denoted as C)”.
Turning to `CCC[C@H]1C(=O)N[C@@H]([C@@H](C)CC)C(=O)N(C)CC(=O)N(C)[C@H]2C/C=C\CCN(C2=O)[C@@H](Cc2ccc(C)cc2)C(=O)N(C)CC(=O)N[C@@H](CCc2ccc(C(F)(F)F)c(Cl)c2)C(=O)N2C[C@H](CC)C[C@H]2C(=O)NC2(CCC2)C(=O)N(C)[C@@H](C2CCCC2)C(=O)N(C)[C@H](C(=O)N(C)C)CC(=O)N1C` [PP2237], the “NRAS/KRAS (ratio of KD value with respect to NRAS to KD value with respect to KRAS)” value in assay [1] is “A (a compound having 10 or more and less than 20 is denoted as A)”. Moreover, the “HRAS/KRAS (ratio of KD value with respect to HRAS to KD value with respect to KRAS)” value in assay [2] is “A (a compound having 10 or more and less than 20 is denoted as A)”.
On to `CCO[C@@H]1C[C@H]2C(=O)NC3(CCC3)C(=O)N(C)[C@@H](C3CCCC3)C(=O)N(CCC3CCCC3)[C@H](C(=O)N(C)C)CC(=O)N(C)[C@@H](CC)C(=O)N[C@@H]([C@@H](C)CC)C(=O)N(C)CC(=O)N(C)[C@H]3C/C=C\CCN(C3=O)[C@@H](Cc3ccc(C(F)(F)F)cc3)C(=O)N(C)CC(=O)N[C@@H](CCc3cc(F)c(C(F)(F)F)c(F)c3)C(=O)N2C1` [PP0982], for which the “NRAS/KRAS (ratio of KD value with respect to NRAS to KD value with respect to KRAS)” value in assay [1] (KD ratio) was “AA (a compound having 20 or more is denoted as AA)”. Also, the “HRAS/KRAS (ratio of KD value with respect to HRAS to KD value with respect to KRAS)” value in assay [2] (KD ratio) was “A (a compound having 10 or more and less than 20 is denoted as A)”.
Regarding `CCCN(C)C(=O)[C@@H]1CC(=O)N(C)[C@@H](COCC)C(=O)N[C@@H]([C@@H](C)CC)C(=O)N(C)CC(=O)N(C)[C@H]2C/C=C\CCN(C2=O)[C@@H](Cc2ccc(C(F)(F)F)cc2)C(=O)N(C)CC(=O)N[C@@H](CCc2cc(F)c(C(F)(F)F)c(F)c2)C(=O)N2C[C@H](OCC)C[C@H]2C(=O)NC2(CCC2)C(=O)N(C)[C@@H](C2CCCC2)C(=O)N1C` [PP1988], the “NRAS/KRAS (ratio of KD value for NRAS to KD value for KRAS)” value in assay [1] (KD ratio) was “A (a compound having 10 or more and less than 20 is denoted as A)”. In assay [2] (KD ratio), the “HRAS/KRAS (ratio of KD value for HRAS to KD value for KRAS)” value was “A (a compound having 10 or more and less than 20 is denoted as A)”.
With `CCCN1C(=O)CN(C)C(=O)CN(CC)C(=O)[C@H]([C@@H](C)CC)NC(=O)[C@H](CC(C)C)N(C)C(=O)C[C@@H](C(=O)N(C)C)N(C)C(=O)[C@H](C2CCCC2)N(C)C(=O)C2(CCCC2)NC(=O)[C@@H]2CC(F)(F)CN2C(=O)[C@H](CCc2ccc(C(F)(F)F)c(Cl)c2)NC(=O)CN(C)C(=O)[C@@H]1Cc1ccc(C(F)(F)F)cc1` [PP0425] ([NMeL]I[NEtG][Sar][NPrPhe(4-CF3)][Sar][hPhe(3-Cl-4-CF3)][Pro(4,4-F2)][Ac5c][NMeGly(cPent)][NMeD]-NMe2; lactam N-11), the “NRAS/KRAS (ratio of KD value with respect to GDP-bound NRAS wild-type protein to KD value with respect to KRAS)” value in assay [1] (KD ratio NRAS/KRAS) is “B (a compound having 3 or more and less than 10 is denoted as B)”. In addition, in assay [2] (KD ratio HRAS/KRAS), the “HRAS/KRAS (ratio of KD value with respect to GDP-bound HRAS wild-type protein to KD value with respect to KRAS)” value was “C (A compound having a KD ratio of 0.1 or more and less than 3 is denoted as C)”.
For `CCO[C@@H]1C[C@H]2C(=O)NC3(CCC3)C(=O)N(C)[C@@H](C3CCCC3)C(=O)N(C)[C@H](C(=O)N(C)C)CC(=O)N(C)[C@@H](CC)C(=O)N[C@@H]([C@@H](C)CC)C(=O)N(CC)CC(=O)N(C)[C@H]3C/C=C\CCN(C3=O)[C@@H](Cc3ccc(C(F)(F)F)cc3)C(=O)N(C)CC(=O)N[C@@H](CCc3cc(F)c(C(F)(F)F)c(F)c3)C(=O)N2C1` [PP1052], the “NRAS/KRAS (ratio of KD value with respect to NRAS to KD value with respect to KRAS)” value in assay [1] (KD ratio) is “A (a compound having 10 or more and less than 20 is denoted as A)”. Moreover, in assay [2] (KD ratio), the “HRAS/KRAS (ratio of KD value with respect to HRAS to KD value with respect to KRAS)” value was “A (a compound having 10 or more and less than 20 is denoted as A)”.
For `CCO[C@@H]1C[C@H]2C(=O)NC3(CC(C)(C)C3)C(=O)N(C)[C@@H](C3CCCC3)C(=O)N(C)[C@H](C(=O)N(C)CC)CC(=O)N(C)[C@@H](C3CC3)C(=O)N[C@@H]([C@@H](C)CC)C(=O)N(C)CC(=O)N(C)[C@H]3C/C=C\CCN(C3=O)[C@@H](Cc3ccc(C(F)(F)F)cc3)C(=O)N(C)CC(=O)N[C@@H](CCc3ccc(C(F)(F)F)c(OC)c3)C(=O)N2C1` [PP1981], the “NRAS/KRAS (ratio of KD value for NRAS to KD value for KRAS)” value in assay [1] (KD ratio) was “A (a compound having 10 or more and less than 20 is denoted as A)”. In assay [2] (KD ratio), the “HRAS/KRAS (ratio of KD value for HRAS to KD value for KRAS)” value was “A (a compound having 10 or more and less than 20 is denoted as A)”.
As for `CCC[C@H]1C(=O)N[C@@H]([C@@H](C)CC)C(=O)N(C)CC(=O)N(C)CC(=O)N(CCC)[C@@H](Cc2ccc(C(F)(F)F)cc2)C(=O)N(C)CC(=O)N[C@@H](CCc2ccc(C(F)(F)F)c(Cl)c2)C(=O)N2CCC[C@H]2C(=O)NC2(CCCC2)C(=O)N(C)[C@@H](C2CCCC2)C(=O)N(C)[C@H](C(=O)N2CCOCC2)CC(=O)N1C` [PP0189] ([NMeNva]I[Sar][Sar][NPrPhe(4-CF3)][Sar][hPhe(3-Cl-4-CF3)]P[Ac5c][NMeGly(cPent)][NMeD]-Morpholide; lactam N-11), the “NRAS/KRAS (ratio of KD for GDP-bound NRAS wild-type to KD for KRAS)” value in assay [1] (KD ratio NRAS/KRAS) was “B (a compound having 3 or more and less than 10 is denoted as B)”. Moreover, the “HRAS/KRAS (ratio of KD for GDP-bound HRAS wild-type to KD for KRAS)” value in assay [2] (KD ratio HRAS/KRAS) was “C (A compound having a KD ratio of 0.1 or more and less than 3 is denoted as C)”.
As to `CCOC[C@H]1C(=O)N[C@@H]([C@@H](C)CC)C(=O)N(C)CC(=O)N(C)[C@H]2C/C=C\CCN(C2=O)[C@@H](CC2CCC(F)(F)CC2)C(=O)N(C)CC(=O)N[C@@H](CCc2ccc(C(F)(F)F)c(Cl)c2)C(=O)N2C[C@H](OCC)C[C@H]2C(=O)NC2(CC(C)(C)C2)C(=O)N(C)[C@@H](C(CC)CC)C(=O)N(C)[C@H](C(=O)N(C)C)CC(=O)N1C` [PP2460], in assay [1], the “NRAS/KRAS (ratio of KD value with respect to NRAS to KD value with respect to KRAS)” value is “A (a compound having 10 or more and less than 20 is denoted as A)”. The “HRAS/KRAS (ratio of KD value with respect to HRAS to KD value with respect to KRAS)” value in assay [2] is “A (a compound having 10 or more and less than 20 is denoted as A)”.
`CCCN1C(=O)[C@@H]2CCN2C(=O)[C@H](C)N(C)C(=O)[C@H]([C@@H](C)CC)NC(=O)[C@H](CC(C)C)N(C)C(=O)C[C@@H](C(=O)N2CCOC2)N(C)C(=O)[C@H](C2CCCC2)N(C)C(=O)C2(CCCC2)NC(=O)[C@@H]2CCCN2C(=O)[C@H](CCc2ccc(C(F)(F)F)c(Cl)c2)NC(=O)CN(C)C(=O)[C@@H]1Cc1ccc(C(F)(F)F)cc1` [PP0183] ([NMeL]I[NMeA][Aze][NPrPhe(4-CF3)][Sar][hPhe(3-Cl-4-CF3)]P[Ac5c][NMeGly(cPent)][NMeD]-{Oxazolidin(3-yl)}; lactam N-11): the “NRAS/KRAS (ratio of KD for GDP-bound NRAS wild-type to KD for KRAS)” value in assay [1] (KD ratio NRAS/KRAS) was “C (A compound having a KD ratio of 0.1 or more and less than 3 is denoted as C)”. For the same molecule, in assay [2] (KD ratio HRAS/KRAS), the “HRAS/KRAS (ratio of KD for GDP-bound HRAS wild-type to KD for KRAS)” value was “B (a compound having 3 or more and less than 10 is denoted as B)”.
